For one sequence, MIC results are on record in ChEMBL document CHEMBL1151432, “Increased susceptibility to colistin in hypermutable Pseudomonas aeruginosa strains from chronic respiratory infections” (Antimicrob Agents Chemother, 2007).

Type in all cases: functional, organism-based
Assay [1] relates to Pseudomonas aeruginosa. Briefly: Antimicrobial activity against Pseudomonas aeruginosa ATCC 27853 by Etest method.
The subject of assay [2] is Pseudomonas aeruginosa. Briefly: Antimicrobial activity against hypermutable Pseudomonas aeruginosa isolated from patients with chronic respiratory infection by Etest method.
For assay [3], the system named is Pseudomonas aeruginosa. Briefly: Antimicrobial activity against non-hypermutable Pseudomonas aeruginosa isolated from intensive care unit patients with chronic respiratory infection by Etest method.
For assay [4], the system named is Pseudomonas aeruginosa. Description: Antimicrobial activity against mutS-deficient Pseudomonas aeruginosa PAO1 by Etest method.
Assay [5] deals with Pseudomonas aeruginosa. Briefly: Antimicrobial activity against non-hypermutable Pseudomonas aeruginosa isolated from patients with chronic respiratory infection by Etest method.
For assay [6], the system named is Pseudomonas aeruginosa. Briefly: Antimicrobial activity against Pseudomonas aeruginosa PAO1 by Etest method.

Take COLISTIN: the MIC – broadly, the least concentration at which growth counts as inhibited – in the assay on Pseudomonas aeruginosa [1] was 1 µg/mL; against Pseudomonas aeruginosa [2], 0.48 µg/mL; in the assay on Pseudomonas aeruginosa [3], 2 µg/mL; against Pseudomonas aeruginosa [4] it was 2 µg/mL; in the assay on Pseudomonas aeruginosa [5] it was 0.92 µg/mL; in the assay with Pseudomonas aeruginosa [6], 2 µg/mL.
